Experimental data as given in ChEMBL document CHEMBL1201862, “PubChem BioAssay data set” (2004).
Active and inactive are the calls of the source.

How the values were obtained:
[1] = biological target: T1, Beta-2 adrenergic receptor (Homo sapiens, UniProt P07550); experiment: Dose response for HTS for Beta-2AR agonists via FAP method from Powderset1.; assay type: functional
[2] = biological target: T1, Beta-2 adrenergic receptor; experiment: ADRB2 activation measured by internalization – cell-based, FAP fluorogen, flow cytometry, cherry pick 1, dose response (AID 588763); assay type: functional
[3] = biological target: T2, High affinity choline transporter 1 (Homo sapiens, UniProt Q9GZV3); experiment: human choline transporter blockers, potency – cell-based, 10-point CRC, membrane potential dye, dose response (AID 588401); assay type: functional;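 further: membrane potential dye fluorescence of choline-evoked depolarization via CHT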
T2 sequence (Q9GZV3 whole entry): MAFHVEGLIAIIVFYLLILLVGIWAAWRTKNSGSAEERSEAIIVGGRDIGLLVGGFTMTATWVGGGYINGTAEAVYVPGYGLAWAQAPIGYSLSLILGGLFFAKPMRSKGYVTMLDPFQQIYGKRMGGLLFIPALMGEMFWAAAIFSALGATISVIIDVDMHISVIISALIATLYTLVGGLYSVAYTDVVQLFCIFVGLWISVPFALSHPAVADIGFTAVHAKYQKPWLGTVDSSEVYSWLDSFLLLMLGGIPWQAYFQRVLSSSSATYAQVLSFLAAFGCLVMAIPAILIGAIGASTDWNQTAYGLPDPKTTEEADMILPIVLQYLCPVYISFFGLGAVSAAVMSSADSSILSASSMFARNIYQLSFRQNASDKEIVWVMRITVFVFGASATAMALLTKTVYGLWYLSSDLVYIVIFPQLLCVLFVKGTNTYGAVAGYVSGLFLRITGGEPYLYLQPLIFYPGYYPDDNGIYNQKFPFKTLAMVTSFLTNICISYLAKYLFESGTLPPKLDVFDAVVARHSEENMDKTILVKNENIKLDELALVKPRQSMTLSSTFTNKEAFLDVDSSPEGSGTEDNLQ

Aminopeptidase N = biological target: T3, Aminopeptidase N (Plasmodium falciparum FcB1/Columbia, UniProt O96935); experiment: malaria alanyl aminopeptidase activity blockers – biochemical, fluorogenic H-Leu-NHMec substrate, 1536-well (AID 1445); set-up: species or system Plasmodium falciparum 3D7, 3D7
T3 sequence (O96935 whole entry): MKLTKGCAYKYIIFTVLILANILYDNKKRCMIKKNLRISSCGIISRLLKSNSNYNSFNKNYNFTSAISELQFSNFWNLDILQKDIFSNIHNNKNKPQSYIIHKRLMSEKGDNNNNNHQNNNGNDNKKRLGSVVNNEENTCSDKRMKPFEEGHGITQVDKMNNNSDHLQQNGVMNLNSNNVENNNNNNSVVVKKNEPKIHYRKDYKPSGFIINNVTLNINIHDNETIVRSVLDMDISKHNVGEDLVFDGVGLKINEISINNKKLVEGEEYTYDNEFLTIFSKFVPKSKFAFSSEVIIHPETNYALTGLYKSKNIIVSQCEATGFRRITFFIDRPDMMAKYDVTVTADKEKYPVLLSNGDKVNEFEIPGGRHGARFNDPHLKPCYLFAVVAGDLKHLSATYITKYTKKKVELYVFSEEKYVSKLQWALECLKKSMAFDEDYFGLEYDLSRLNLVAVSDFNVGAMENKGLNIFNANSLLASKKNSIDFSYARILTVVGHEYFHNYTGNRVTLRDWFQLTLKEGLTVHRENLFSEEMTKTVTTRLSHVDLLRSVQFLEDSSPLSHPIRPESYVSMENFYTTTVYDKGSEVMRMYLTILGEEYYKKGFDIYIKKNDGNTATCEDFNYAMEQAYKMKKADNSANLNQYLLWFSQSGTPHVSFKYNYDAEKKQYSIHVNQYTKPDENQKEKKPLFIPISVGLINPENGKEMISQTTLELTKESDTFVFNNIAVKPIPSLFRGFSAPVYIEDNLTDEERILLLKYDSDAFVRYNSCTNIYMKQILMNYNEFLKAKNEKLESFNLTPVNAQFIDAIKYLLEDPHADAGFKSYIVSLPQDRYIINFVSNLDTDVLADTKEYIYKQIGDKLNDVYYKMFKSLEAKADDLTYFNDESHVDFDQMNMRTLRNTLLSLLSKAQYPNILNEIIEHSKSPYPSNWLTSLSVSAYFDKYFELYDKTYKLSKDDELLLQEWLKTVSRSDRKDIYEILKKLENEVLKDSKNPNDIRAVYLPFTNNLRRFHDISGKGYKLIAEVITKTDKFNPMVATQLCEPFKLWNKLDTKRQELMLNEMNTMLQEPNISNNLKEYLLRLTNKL

[4] = test system: Streptococcus sp. 'group A'; experiment: Streptococcus pyogenes SK(-)GAS viability under kanamycin – luminescence, BacTiterGlo, confirmation, counter-screen for streptokinase expression inhibitor project, dose response (AID 1900); assay type: functional, organism-based
[5] = biological target: T2, High affinity choline transporter 1; experiment: human choline transporter blockers, potency – cell-based, 5-point CRC, membrane potential dye, dose response (AID 504840); assay type: functional
Streptokinase A = biological target: T4, Streptokinase A (Streptococcus pyogenes serotype M1, UniProt P10520); experiment: viability-normalized secreted streptokinase activity reduction – plasminogen activation absorbance, OD405, dose response (AID 1914); assay type: functional, Streptococcus pyogenes M1 GAS;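 further: secreted streptokinase activity via plasminogen activation per viability signal from cell pellet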
T4 sequence (P10520 whole entry): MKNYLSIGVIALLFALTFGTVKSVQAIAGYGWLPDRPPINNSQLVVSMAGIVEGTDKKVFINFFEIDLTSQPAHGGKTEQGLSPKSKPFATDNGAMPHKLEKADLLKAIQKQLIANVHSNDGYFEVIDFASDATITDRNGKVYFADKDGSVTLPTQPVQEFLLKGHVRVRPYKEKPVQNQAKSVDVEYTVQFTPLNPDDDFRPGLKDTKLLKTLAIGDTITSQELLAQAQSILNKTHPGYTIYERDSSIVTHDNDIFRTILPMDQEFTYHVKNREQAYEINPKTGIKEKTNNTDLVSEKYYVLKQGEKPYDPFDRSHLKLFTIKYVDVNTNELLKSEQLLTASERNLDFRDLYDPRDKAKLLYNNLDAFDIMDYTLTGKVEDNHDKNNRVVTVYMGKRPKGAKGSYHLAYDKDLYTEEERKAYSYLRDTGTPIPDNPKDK

Streptococcus = experiment: GAS UMAA2166 growth inhibition – luminescence, BacTiterGlo, counter-screen for streptokinase expression inhibitor project, dose response (AID 1915); assay type: functional, organism-based;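 further: potency for reduction of bacterial viability or growth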
Genome polyprotein = Genome polyprotein (dengue virus type 2, UniProt P29990); experiment: flavivirus cap methylation enzyme inhibition – biochemical, confirmation dose response, primary screen (AID 588689); assay type: functional
Sequence of Genome polyprotein (P29990 2492-3391 limits assumed): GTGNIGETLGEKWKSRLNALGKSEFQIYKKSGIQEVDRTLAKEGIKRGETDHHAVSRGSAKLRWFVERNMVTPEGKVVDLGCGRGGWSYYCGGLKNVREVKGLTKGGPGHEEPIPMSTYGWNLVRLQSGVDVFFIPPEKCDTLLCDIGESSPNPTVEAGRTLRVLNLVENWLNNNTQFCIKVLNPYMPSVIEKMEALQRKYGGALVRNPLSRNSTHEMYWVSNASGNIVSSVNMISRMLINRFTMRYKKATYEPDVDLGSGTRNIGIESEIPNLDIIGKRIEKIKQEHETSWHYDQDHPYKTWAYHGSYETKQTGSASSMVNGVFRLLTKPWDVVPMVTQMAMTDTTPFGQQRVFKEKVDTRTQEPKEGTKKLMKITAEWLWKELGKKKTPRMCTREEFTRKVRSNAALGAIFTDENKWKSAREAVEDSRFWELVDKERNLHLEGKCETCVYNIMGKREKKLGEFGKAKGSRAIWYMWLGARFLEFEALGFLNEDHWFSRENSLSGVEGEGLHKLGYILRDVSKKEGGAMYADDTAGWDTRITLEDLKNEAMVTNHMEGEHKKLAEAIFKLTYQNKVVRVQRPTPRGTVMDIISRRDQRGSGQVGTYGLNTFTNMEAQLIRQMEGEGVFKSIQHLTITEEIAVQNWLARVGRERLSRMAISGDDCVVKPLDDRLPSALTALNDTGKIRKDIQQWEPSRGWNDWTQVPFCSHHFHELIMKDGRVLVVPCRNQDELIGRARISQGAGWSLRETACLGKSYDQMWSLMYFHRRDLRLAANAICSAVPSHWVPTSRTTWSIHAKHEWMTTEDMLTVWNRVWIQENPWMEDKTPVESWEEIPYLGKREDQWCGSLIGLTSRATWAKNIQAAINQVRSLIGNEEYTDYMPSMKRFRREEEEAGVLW

[6] = biological target: Arf-GAP with SH3 domain, ANK repeat and PH domain-containing protein 1 (Homo sapiens, UniProt Q9ULH1); assay type: functional;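 further: biochemical fluorescence polarization dose–response screen measuring inhibition of ASAP1; ASAP1 GAP domain stimulating GTP hydrolysis by truncated human ARF1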
Sequence of Arf-GAP with SH3 domain, ANK repeat and PH domain-containing protein 1 (Q9ULH1 whole entry, the tested form may be a part): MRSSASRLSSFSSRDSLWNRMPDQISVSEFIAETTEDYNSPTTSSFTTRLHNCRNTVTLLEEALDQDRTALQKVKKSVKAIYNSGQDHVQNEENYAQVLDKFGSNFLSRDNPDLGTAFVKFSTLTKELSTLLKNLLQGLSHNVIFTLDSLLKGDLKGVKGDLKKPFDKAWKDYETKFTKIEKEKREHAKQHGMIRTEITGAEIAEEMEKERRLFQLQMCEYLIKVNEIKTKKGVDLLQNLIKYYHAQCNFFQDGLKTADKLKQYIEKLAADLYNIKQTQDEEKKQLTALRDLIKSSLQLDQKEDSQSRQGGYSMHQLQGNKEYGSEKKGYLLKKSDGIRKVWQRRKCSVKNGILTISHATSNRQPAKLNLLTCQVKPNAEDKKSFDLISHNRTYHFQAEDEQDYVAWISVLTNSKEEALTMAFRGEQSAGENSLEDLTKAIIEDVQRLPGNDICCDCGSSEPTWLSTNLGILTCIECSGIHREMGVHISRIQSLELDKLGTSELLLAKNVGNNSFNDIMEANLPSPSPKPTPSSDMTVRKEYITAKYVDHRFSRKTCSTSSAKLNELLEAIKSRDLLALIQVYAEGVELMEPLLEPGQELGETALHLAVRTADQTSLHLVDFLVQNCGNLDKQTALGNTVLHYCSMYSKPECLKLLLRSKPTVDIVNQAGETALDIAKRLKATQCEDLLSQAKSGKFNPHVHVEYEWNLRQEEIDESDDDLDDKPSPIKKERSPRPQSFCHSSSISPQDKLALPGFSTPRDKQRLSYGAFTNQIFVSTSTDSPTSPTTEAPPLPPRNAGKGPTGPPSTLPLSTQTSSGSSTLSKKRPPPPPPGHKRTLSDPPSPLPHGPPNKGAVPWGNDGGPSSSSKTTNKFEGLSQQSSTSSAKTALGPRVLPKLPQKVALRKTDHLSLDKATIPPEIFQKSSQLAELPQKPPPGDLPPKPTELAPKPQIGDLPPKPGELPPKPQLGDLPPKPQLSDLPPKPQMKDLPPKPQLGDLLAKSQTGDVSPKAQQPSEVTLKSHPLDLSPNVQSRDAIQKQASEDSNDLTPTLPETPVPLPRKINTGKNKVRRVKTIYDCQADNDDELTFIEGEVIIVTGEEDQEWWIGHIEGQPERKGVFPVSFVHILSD

Caspase-6 = biological target: T5, Caspase-6 (Homo sapiens, UniProt P55212); experiment: inhibition of CASP6 peptide cleavage – biochemical, VEID-R110 fluorescence, cherry-pick, dose response (AID 720632)
T5 sequence (P55212 whole entry): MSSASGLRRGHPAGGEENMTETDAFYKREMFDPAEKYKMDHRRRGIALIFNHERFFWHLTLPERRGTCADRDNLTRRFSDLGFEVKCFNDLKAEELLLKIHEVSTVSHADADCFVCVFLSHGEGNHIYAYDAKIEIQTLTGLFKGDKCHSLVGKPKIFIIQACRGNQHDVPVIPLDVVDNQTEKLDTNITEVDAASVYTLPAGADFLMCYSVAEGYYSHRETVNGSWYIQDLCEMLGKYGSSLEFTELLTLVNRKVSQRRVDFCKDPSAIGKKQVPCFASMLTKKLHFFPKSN

[7] = biological target: T6, Sentrin-specific protease 8 (Homo sapiens, UniProt Q96LD8); assay type: functional
T6 sequence (Q96LD8 whole entry): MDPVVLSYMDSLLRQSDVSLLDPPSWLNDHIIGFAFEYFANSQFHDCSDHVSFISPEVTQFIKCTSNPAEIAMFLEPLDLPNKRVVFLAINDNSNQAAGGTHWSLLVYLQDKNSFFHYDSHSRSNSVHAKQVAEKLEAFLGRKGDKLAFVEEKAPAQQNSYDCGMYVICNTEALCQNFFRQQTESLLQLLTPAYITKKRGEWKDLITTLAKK

[8] = biological target: T7, Heat shock factor protein 1 (Mus musculus, UniProt P38532); experiment: decrease of HSF1-responsive luciferase luminescence – cell-based, NIH3T3, dose retest, confirmation (AID 2382); assay type: functional;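 further: NIH3T3 fibroblasts with HSF1-driven luciferase reporter stressed by proteasome inhibitor MG132; luminescence from HSF1-driven luciferase expression after 8 hours of MG132 stress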
T7 sequence (P38532 whole entry): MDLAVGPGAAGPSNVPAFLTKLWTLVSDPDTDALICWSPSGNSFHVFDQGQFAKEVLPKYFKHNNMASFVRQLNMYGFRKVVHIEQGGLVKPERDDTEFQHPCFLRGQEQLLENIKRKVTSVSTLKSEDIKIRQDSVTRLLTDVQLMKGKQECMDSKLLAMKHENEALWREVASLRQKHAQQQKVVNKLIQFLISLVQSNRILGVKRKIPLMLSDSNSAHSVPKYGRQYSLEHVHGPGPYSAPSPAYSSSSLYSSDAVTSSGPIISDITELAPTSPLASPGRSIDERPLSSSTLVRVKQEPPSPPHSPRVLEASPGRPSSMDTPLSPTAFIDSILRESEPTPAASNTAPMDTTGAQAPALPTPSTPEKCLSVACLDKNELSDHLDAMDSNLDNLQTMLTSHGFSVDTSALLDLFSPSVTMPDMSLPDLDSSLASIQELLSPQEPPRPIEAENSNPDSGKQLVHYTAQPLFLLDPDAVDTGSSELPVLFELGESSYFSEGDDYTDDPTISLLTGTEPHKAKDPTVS

[9] = biological target: T6, Sentrin-specific protease 8; assay type: functional; remark: listed apart in the source
[10] = bead-based luminescence quenchers, dual-tagged ARNT – biochemical, AlphaScreen, cherry-pick, artefact control for ARNT-TACC3 interaction inhibitor project, dose response (AID 651705); assay type: functional;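 further: AlphaScreen bead proximity signal that flags compounds interfering with the detection technology; potency reflects signal decrease which marks the compound as an assay artifact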

T1 sequence (P07550 whole entry): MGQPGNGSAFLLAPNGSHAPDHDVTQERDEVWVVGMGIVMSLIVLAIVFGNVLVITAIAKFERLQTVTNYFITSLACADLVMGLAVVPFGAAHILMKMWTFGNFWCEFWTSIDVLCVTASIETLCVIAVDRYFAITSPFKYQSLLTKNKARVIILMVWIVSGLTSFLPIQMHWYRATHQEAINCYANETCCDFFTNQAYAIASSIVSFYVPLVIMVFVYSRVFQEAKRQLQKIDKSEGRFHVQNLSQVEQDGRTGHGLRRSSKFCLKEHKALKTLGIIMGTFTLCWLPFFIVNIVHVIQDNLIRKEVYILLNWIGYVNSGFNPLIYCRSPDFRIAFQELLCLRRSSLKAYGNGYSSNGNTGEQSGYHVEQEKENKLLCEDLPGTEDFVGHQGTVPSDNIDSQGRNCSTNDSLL

In the case of `Cc1ccc(SCC(=O)Nc2ccc(-c3nc4ccccc4[nH]3)cc2)cc1`, the EC50 [1] is reported as 0.00682 µM (active) and the EC50 [2] is reported as 0.0116 µM (active).

With `COc1cc(/C=C2\SC(NS(=O)(=O)c3ccccc3)=NC2=O)c([N+](=O)[O-])cc1OC` the IC50 [3] was 8.91 µM (active), the IC50 (Aminopeptidase N) was 25.5 µM (active) and the EC50 [4] was 25.6 µM (active). For the same compound, the IC50 [5] was 4.17 µM (active), the EC50 (Streptokinase A) was > 150 µM (not active) and the EC50 (Streptococcus) was > 150 µM (not active). For the same compound, the IC50 (Genome polyprotein) was 43.4 µM (active).

For `COc1cccc(-n2nnc3c(=O)n(Cc4ccc(Br)cc4)cnc32)c1`, the IC50 [6] was 24.7 µM (inactive).

In the case of `O=C1Cc2ccccc2C(=O)N1c1cccc(Cl)c1`, the AC50 (Caspase-6) is reported as 35.6 µM (active), the IC50 [7] is reported as 6.08 µM (active) and the EC50 [8] is reported as > 195 µM (not active). The IC50 [9] was > 100 µM (inactive).

For `O=C(CSc1ccc(-c2ccccn2)nn1)c1ccc([N+](=O)[O-])cc1`, the AC50 [10] was 131 µM (active).

For `COC(=O)N/N=C1/C/C(=N\NC(=O)OC)c2ccccc21`, the AC50 (Caspase-6) was 4.22 µM (active), the IC50 [7] was 0.365 µM (active) and the IC50 [9] was 0.557 µM (active).
